Measurements from PubChem BioAssay AID463074 (Broad Institute, 2010).
Calls of active or inactive are those of the source.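 How the source made its calls: active means AC50 no more than tenfold above the top dose tested, or full inhibition at every dose with a flat fit (cut at about 19 µM in these data); inconclusive means flat curve fit with inhibition between 30% and 70%, or poor fit; inactive means AC50 more than tenfold above the top dose tested.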

Test system: HMLE_sh_eGFP viability, CellTiter-Glo luminescence, 72 h
Assay: cytotoxicity in HMLE control line with eGFP shRNA, dose response, counter-screen for HMLE_sh_ECad selective toxicity project, cell-based, HMLE_sh_eGFP, luminescence (AID 463074);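 further: counterscreen control line to flag general toxicity for the HMLE_sh_ECad screen; potency for loss of viability as luminescence drops below DMSO wells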

Structure (SMILES) | AC50
O=C(NC12CC3CC(CC(C3)C1)C2)c1ccc(-c2ccccc2Cl)o1 | 3.81 µM
CC1(C)C[C@H](O)[C@]2(CO)[C@H](O)C[C@]3(C)C(=CCC4[C@@]5(C)CC[C@H](O)C(C)(C)C5CC[C@]43C)[C@@H]2C1 (some centres not stated) | 3.63 µM
O=C(Nc1ccc(Cl)cc1)c1cc2c(cc1O)[nH]c1ccccc12 | 0.488 µM
Cc1ccc(N/N=C/c2c(O)n(-c3ccccc3)c(=O)[nH]c2=O)cc1 | 3.87 µM
Cc1cccc(-n2ncc3c(N4CCCc5ccccc54)ncnc32)c1 | 7.68 µM
NC(=O)CC(NC(=O)Cc1cccc2ccccc12)c1ccc(NCc2ccc(F)cc2)c([N+](=O)[O-])c1 (configuration not stated) | 19.8 µM
Cc1occc1C(=O)Nc1ccc(OCc2ccccc2)cc1 | 6.25 µM
COc1ccc(NC(=O)c2cc3ccc(O)cc3o/c2=N\O)cc1 | 9.36 µM
CCCCCCCCCCS(=O)(=O)N/N=C/c1ccc([N+](=O)[O-])cc1 | 12.9 µM
O=C(Nc1cccc(Cl)c1N1CCCCC1)c1ccc2c(c1)OCCO2 | 11.4 µM
Cc1cccc(CN2C(=O)/C(=C\c3ccc(C(=O)NCCCN4CCN(C)CC4)cc3)Oc3ccccc32)c1 | 3.62 µM
O=C(C#Cc1ccccc1)Nc1cccc(F)c1 | 3.43 µM
O=C1[C@@H]2Cc3c([nH]c4ccccc34)C(c3cccc(Br)c3)N2C(=O)CN1C1CCN(Cc2ccccc2)CC1 (some centres not stated) | 7.12 µM
c1ccc(CN2CCC(Nc3nc(-c4cccs4)nc4ccccc34)CC2)cc1 | 6.8 µM
Cc1ccc(C)c(Cc2c(C)nc3c(C(=O)NCc4ccc5c(c4)OCO5)cnn3c2C)c1 | 19 µM
CCN(c1ccc(NC(=O)CCc2nc3sc4c(c3c(=O)[nH]2)CCCC4)cc1)C(C)C | 9.45 µM
CN1C(=O)/C(=C/c2cc(N=Nc3ccccc3)ccc2O)SC1=S | 1.29 µM
C[C@H]1CN([C@@H](C)CO)C(=O)Cc2cc(NC(=O)CCC(F)(F)F)ccc2O[C@H]1CN(C)Cc1ccc(-c2ccccc2)cc1 | 6.9 µM
COc1ccc(-c2c(C#N)c(SCC(=O)c3cc4ccccc4oc3=O)nc(C)c2C(=O)Nc2ccccc2)cc1 | 1.5 µM
COc1ccc(-c2cccc([C@H]3[C@@H]4C=CCC[C@@]4(C)C(=O)N3Cc3ccccc3)c2)cc1 | 7.45 µM
CCCOc1ccc(/C=N/Nc2cc(N3CCOCC3)ncn2)c(O)c1 | 3.38 µM
CCCCCCC(C)(C)c1ccc([C@@H]2C[C@H](O)CC[C@H]2CCCO)c(O)c1 | 3.5 µM
COc1ccc(-n2cc(-c3ccccc3)c3c(N4CCOCC4)ncnc32)cc1 | 6.91 µM
O=S(=O)(Nc1ccc(-c2csc(-c3ccccc3)n2)cc1)c1ccccc1 | 5.92 µM
CCOC(=O)c1c(C)sc2c1N(C(=O)CCl)c1cc(Cl)ccc1S2 | 3.66 µM
Cc1cc(C(=O)N/N=C/c2cc(Br)cc(Br)c2OC(=O)c2cccc(F)c2)n[nH]1 | 3.3 µM

Structure (SMILES) | AC50
Cc1ccc(NC(=O)c2ccc(Cl)c(N3C(=O)C=CC3=O)c2)cc1 | 8.19 µM
Fc1ccc2[nH]c3c(N4CCc5ccccc5C4)ncnc3c2c1 | 7.36 µM
O=C(Nc1ccc(Cl)c(Cl)c1)O/N=C/c1ccncc1 | 10.1 µM
CC(C)Cn1c(O)c(/C=C2\C=NN=C2c2ccccc2)sc1=S | 3.54 µM
COc1ccc(CN(CCC(c2ccccc2)c2ccc(OC(C)C)cc2)C(=O)CCl)cc1OC (configuration not stated) | 1.67 µM
O=C(Nc1ccc(Cl)cc1)Nc1nnc(-c2ccncc2)s1 | 2.42 µM
Cc1ccc2sc(N(CCCN(C)C)C(=O)c3ccc(S(=O)(=O)N4CCCCCC4)cc3)nc2c1C | 7.04 µM
COc1cc2c(-c3ccc(O)cc3)nc3c(c(C)nn3-c3ccccc3)c2cc1OC | 3.92 µM
Oc1cccc(C(O)CNCc2ccc(OCc3ccc(Cl)cc3Cl)cc2)c1 (configuration not stated) | 7.09 µM
COc1cc([C@@H]2c3cc4c(cc3[C@@H](O)[C@H]3COC(=O)[C@H]23)OCO4)cc(OC)c1O[Si](C)(C)C(C)(C)C | 6.76 µM
CN(C)c1ccc(/C=C(\Cl)c2nc3ccccc3s2)cc1 | 2.85 µM
C/C(NC(=O)c1cccc(F)c1)=C1/C(=O)C[C@@H]2[C@H]1C2(C)C | 2.13 µM
Cc1cccc(-c2oc3ccccc3c2C#CCCCCO)c1 | 7.62 µM
Cc1cc(C(=O)NNc2ccc(Cl)cc2)no1 | 1.37 µM
CC(NC(=O)c1ccc([N+](=O)[O-])o1)C12CC3CC(CC(C3)C1)C2 (configuration not stated) | 9.54 µM
CC(=O)O[C@H]1[C@@H](O)[C@H](O)[C@H](Oc2c(O)c(C)c3c4c2[C@@H](C)CC[C@@H]4[C@@H](C)C[C@H]3C=C(C)C)O[C@H]1C | 3.57 µM
Cc1nn(Cc2ccccc2)c(C)c1C(=O)OCC(=O)c1cc(C)n(CC(F)(F)F)c1C | 14 µM
O=Cc1ccc(Oc2cc(-c3ccccc3)nc(-c3ccccc3)n2)cc1 | 7.03 µM
COC(=O)C1=C(C)N(Cc2ccccc2)C(=NCc2ccccc2)N[C@H]1c1cccc(C(F)(F)F)c1 | 3.68 µM
CCc1ccc(Nc2nc(N)nc(CSc3nc4ccccc4s3)n2)cc1 | > 19.5 µM (inactive)
COc1ccc(-c2cn[nH]c2-c2ccc(OCc3ccccc3)cc2O)cc1 | 7.02 µM
N#C/C(=C\c1c[nH]c2ccc(Br)cc12)c1ccccn1 | 10.3 µM
COc1cc(OC)cc(-c2sc3ccc(OC)cc3c2C#CCCO)c1 | 7.93 µM
O=C(NCCC1=CCCCC1)c1coc(=O)c(Br)c1 | 11.7 µM
Cc1cc(NCCCn2ccnc2)n2nc(C)c(-c3ccc(Cl)cc3)c2n1 | 6.46 µM
COc1cc(OC)cc(-c2sc3ccc(OC)cc3c2-c2ccc(O)cc2)c1 | 3.41 µM
